According to patent US12459951B2, “Compounds that interact with RAS superfamily proteins for treatment of cancers, inflammatory diseases, rasopathies, and fibrotic disease” (SHY Therapeutics, LLC, priority 2022, dated 2025):

What was measured:
Erk1/2 phosphorylation = test: Erk1/2 Phosphorylation Assay (western blot), Panc-1; assay type: cell-based, human; details: at 10 μM, * = activation
In short: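 KRas G12D Panc-1 cells were treated 6 h at 37° C with compound at 10 μM or serial dilutions for IC50 (0.3% DMSO). In method 1, cells were serum-starved overnight (0.5% FBS) and then given 1.5 ng/ml EGF for 15 min. In method 2, cells stayed in 10% FBS without stimulation. Lysate phospho-Erk1/2 (Thr202/Tyr204) was read by western blot.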

Rheb = molecular target: T1, Rheb (Homo sapiens, UniProt Q15382); test: Rheb GTP Binding Domain Inhibition Assay; details: read-out: Rheb: % inh.
T1 construct: made in house
T1 sequence (Q15382 whole entry, the tested form may be a part): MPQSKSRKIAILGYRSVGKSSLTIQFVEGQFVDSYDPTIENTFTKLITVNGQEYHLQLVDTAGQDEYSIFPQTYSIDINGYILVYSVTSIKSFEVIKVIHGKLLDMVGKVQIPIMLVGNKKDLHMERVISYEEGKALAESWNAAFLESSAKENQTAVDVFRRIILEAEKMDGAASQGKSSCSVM
In short: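 His-tagged cdc42 or Rheb (10–30 μg/mL) bound to nickel plates, then exposed to compound (20 μM, or serial dilutions for IC50) in 1% DMSO for 3 h at room temperature, ±Sos during final hour. Cy3- or Cy5-GTP (100 nM) added for 45 min; bound labelled GTP read by fluorescence after washes.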

MAPK p38 phosphorylation = test: MAPK p38 Activation Assay (western blot), Panc-1; assay type: cell-based, human; details: at 10 μM, Panc-1 pancreatic cancer cell line; starred symbols = activation
In short: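 Panc-1 cells (KRas G12D) were treated with compound for 6 h at 37 °C, at 10 μM or as serial dilutions for IC50, with 0.3% DMSO. Method 1 used overnight serum-starved cells (0.5% FBS) stimulated with 1.5 ng/ml EGF for 15 min; Method 2 used unstimulated cells in 10% FBS. Phospho-p38 (Thr180/Tyr182) was detected by western blot.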

inhibition at 20 µM (Rheb) [%] | Structure (SMILES) | % inh of Erk1/2 phosphorylation in Panc-1 (Erk1/2 phosphorylation) | % inh of MAPK p38 in Panc-1 (MAPK p38 phosphorylation)
26 to 49 | COCCO[C@H]1C[C@H](Nc2nc(-c3nccn3C)nn3cc(-c4cccc(OC)c4F)c(-c4ccccc4)c23)C1 [Compound 44, 6-(2-Fluoro-3-methoxyphenyl)-N-((1r,3r)-3-(2-methoxyethoxy)cyclobutyl)-2-(1-methyl-1H-imidazol-2-yl)-5-phenylpyrrolo[2,1-f][1,2,4]triazin-4-amine] | B (26-49% inhibition) | H* (H* ≥ 100% activation)
1 to 25 | COc1cccc(-c2cn3nc(-c4nccn4C)nc(N[C@H]4C[C@H](OC)C4)c3c2-c2ccccc2)c1F [Compound 42, 6-(2-Fluoro-3-methoxyphenyl)-N-((1r,3r)-3-methoxycyclobutyl)-2-(1-methyl-1H-imidazol-2-yl)-5-phenylpyrrolo[2,1-f][1,2,4]triazin-4-amine] | D (85-100% inhibition) | H* (H* ≥ 100% activation)
